Laboratory results reported in patent US20250382589A1, “SYNTHETIC OPERONS FOR THE PRODUCTION OF 2-MERCAPTOETHANE SULFONATE (COENZYME M) AND METHODS OF USING THE SAME” (priority 2024, published 2025).
Where “and” joins values, the source holds several entries; their conditions need not be identical. Equal values may be shown once.

Legend:
wild-type E. coli K12 = experiment: Oxidative stress assay after preincubation with CoM (cumene hydroperoxide); type: cell-based, Escherichia coli
Text: After having established that E. coli can use CoM as a sulfur source when grown on sulfur-free media, we tested if exogenously supplied CoM could mitigate oxidative stress. […] Protection from oxidative stress remained consistent as the concentration of CuHO2 increased (FIG. 19b). Exponential and logarithmic regression analyses were applied to the lag times of −CoM and +CoM cultures under CuHO2 stress (FIG. 33). These regression curves and their associated equations calculate that the lag time for +CoM E. coli subjected to 65 μM CuHO2 is equivalent to the lag time of −CoM E. coli subjected to ˜50 μM CuHO2.

E. coli K-12 ΔtauD [1] = experiment: as above
[2] = test system: E. coli K-12 wild-type and ΔtauD; type: cell-based, Escherichia coli; details: for growth when plated with 2 mM: 2 mM on plates
Description: Uptake of exogenous CoM by E. coli. To determine whether E. coli could catabolize CoM, wild-type (NB506) and ΔtauD (NB510) E. coli K-12 strains were tested for the ability to use CoM, cysteine, and taurine as sole sulfur source on M9 minimal medium lacking sulfur (—S) agar plates after washing to reduce nutrient carryover. E. coli strains were streaked on LB agar (1.5%) plates and used to inoculate 3 mL defined medium (Table 7) then incubated at 35° C. (16 hours, 215 rpm). Cells from 100 μL of each culture was harvested by centrifugation at 5,000×g for 3 minutes. Cells were washed three times and resuspended in 1 mL phosphate buffered saline (137 mM NaCl, 2.7 mM KCl, 10 mM Na2HPO4, 1.8 mM KH2PO4). […] Washed cultures were streaked on each agar plate and incubated at 35° C. for 63 hours before photographing.
We assessed which catabolic pathways could be involved in a hypothetical digestion of CoM by E. coli. […] If this was the case, then the antioxidant effect of CoM may be stronger in the ΔtauD strain when compared to the wild-type strain.

E. coli K-12 ΔtauD [3] = experiment: Chronic oxidative stress assay (cumene hydroperoxide, 96-well growth); type: cell-based, Escherichia coli; details: taurine supplied
Description: Chronic oxidative stress assay. Cultures were prepared according to the procedure outlined in the Acute Stress Assay method above. Cultures were normalized to 0.1 OD600 and 4.5 mL defined medium was inoculated (1:10) and gently mixed. Cultures (148 μL) were dispensed into each well of a sterile 96-well plate. 2 μL of either H2O or […] CuHO2 was added to designated wells.
Observed increases in the doubling times of com^syn expressing cells are expected as these cultures are being tasked with recombinantly producing enzymes which the vector-only control carrying cells are not (FIG. 8d).
As CoM is a thiol with proposed antioxidant qualities, we tested the ability of operon 3 to protect E. coli from oxidative stress. ΔtauD K-12 E. coli were made kanamycin sensitive through the use of the pCP20 plasmid and given a T7 Polymerase using a λDE3 Lysogenization Kit (Novagen). […] Expression of operon 3 was induced for 2 hours using 100 μM IPTG and cultures were incubated with 100 μM taurine for 70 minutes before being used as inoculum in a 96 well plate with cumene hydroperoxide. Optical density (OD) measurements at 600 nm were taken every 6 minutes for 17.5 hours using a Tecan Microplate Reader. A Kirby-Bauer assay was developed which examined the zone of clearing around sterile absorption disks dosed with 5 μL 2.45M hydrogen peroxide.

E. coli K-12 ΔtauD [4] = experiment: Acute oxidative stress assay (H2O2 disks, zone of clearing); type: cell-based, Escherichia coli; details: 0.1 mM taurine
Description: Acute oxidative stress assay. E. coli K-12 ΔtauD (NB510) was transformed using pET24a (vector-only control, VOC) or pCH003 (com^syn) to generate strains NB515 and NB525, respectively, and grown on LB agar (1.5%) plates containing 50 μg/mL kanamycin. Cultures were grown in defined medium with kanamycin at 37° C. (10 hours, 215 rpm) then 6 mL defined medium was inoculated (1:100). This culture was incubated until OD600=0.4-0.5 then induced using 0.1 mM IPTG. After another hour of incubation, the cultures were then split into two aliquots of 2.6 mL each, given either 0.1 mM taurine or H2O, and incubated another hour. LB plates containing 0.1 mM IPTG and 0.1 mM taurine were prepared and warmed for 15 minutes at 37° C. Cultures were normalized to 0.1 OD600 and 1 mL of culture was spread on each plate. […] Zones of clearing were measured using the ImageJ program.(38) […]
As CoM is a thiol with proposed antioxidant qualities, we tested the ability of operon 3 to protect E. coli from oxidative stress. ΔtauD K-12 E. coli were made kanamycin sensitive through the use of the pCP20 plasmid and given a T7 Polymerase using a λDE3 Lysogenization Kit (Novagen). […] Optical density (OD) measurements at 600 nm were taken every 6 minutes for 17.5 hours using a Tecan Microplate Reader. […]

[5] = test system: CoM synthesis from pyruvate and taurine; experiment: CoM biosynthesis assay in E. coli lysate; type: biochemical, Escherichia coli
Description: CoM biosynthesis assay. To improve expression of comF, pCH003 was transformed into BL21 E. coli along with pDB1282, graciously provided by Squire J. Booker (Penn State University).(36) This strain was grown in 25 mL defined medium overnight at 37° C. (250 rpm); this was used to inoculate 975 mL defined medium and continued growth at 37° C. (250 rpm). At OD600=0.3 of the culture was supplemented with 2% L-arabinose, 2 mL 1 M cysteine HCl (2 mM), […] iron (II) sulfate (1 mM), and […] ferric ammonium sulfate (1 mM) then returned to incubation. After 1 hour the culture was induced using 0.1 mM IPTG, incubated for 3 hours, pelleted at 8,000×g (10 minutes, 4° C.), and stored at −80° C. until analysis. A portion of the cell pellet was lysed as described above and the presence of ComF and Tpa was confirmed by immunoblotting using a 8-16% polyacrylamide gel with the initial electrophoresis changed to 50 V (25 minutes) followed by 100 V (105 minutes) and transferred using constant 0.11 A (50 minutes). […] Samples were aspirated into a luer slip tip syringe and filtered through a 0.2 μm, 13 mm diameter polyethersulfone (PES) membrane into fresh amber autosampler vials then stored at 4° C. in the dark until analyzed by high-performance liquid chromatography (HPLC) using an UltiMate 3000 (Thermo Scientific, Waltham, MA). […]

O=S(=O)(O)CCS [CoM, 2-mercaptoethanesulfonate]
CuHO2 concentration giving the same lag time in −CoM culture (wild-type E. coli K12; +CoM at 65 μM CuHO2, regression): ~50 µM and 49.73 µM
lag time (wild-type E. coli K12; +CoM, 65 μM CuHO2): 6.0 h
lag time predicted by exponential regression (wild-type E. coli K12; +CoM, 65 μM CuHO2): 6.313 h
CuHO2 mitigated (wild-type E. coli K12; from regression of lag times): ~15 µM
lag time (wild-type E. coli K12; preincubated with 100 μM CoM (+CoM), 75 μM cumene negative control, time to OD600=0.1): 3.0 h
lag time (E. coli K-12 ΔtauD [1]; +CoM, 65 μM CuHO2): 4.7 h
CuHO2 mitigated (E. coli K-12 ΔtauD [1]; comparison of lag times): ~20 µM
lag time (E. coli K-12 ΔtauD [1]; preincubated with CoM, 75 μM cumene): 3.5 h
growth when plated with 2 mM [2]: no growth defects

N[C@@H](CS)C(=O)O [Cys, cysteine]
growth when plated with 2 mM [2]: no growth defects

NCCS(=O)(=O)O [taurine]
lag time of vector-only control cells (E. coli K-12 ΔtauD [3]): lag time increased
lag time of vector-only control cells (E. coli K-12 ΔtauD [3]; listed as SC): increases
zone of clearing of Empty Vector strain (E. coli K-12 ΔtauD [4]): increase in the average zone of clearing size
growth when plated with 2 mM [2]: Inhibitory growth
growth with the substance as sulfur source ([2]; M9 (—S) agar plates, 100 μM): grew poorly

B1: Q9APM5: taurine-pyruvate aminotransferase from Bilophila wadsworthia, SEQ ID NO: 3 (protein, listed as Bilophila wadsworthia)
chain: MTYDKAELVALDKKYVWHHLTQHKNFEPAIYVKGEGMRITDIDGKTYLDAVSGGVWTVNVGYGRKEIVDAVAKQMMEMCYFANGIGNVPTIKFSEKLISKMPGMSRVYLSNSGSEANEKAFKIVRQIGQLKHGGKKTGILYRARDYHGTTIGTLSACGQFERKVQYGPFAPGFYEFPDCDVYRSKFGDCADLGVKMAKQLEEVILTVGPDELGAVIVEPMTAGGGILVPPAGYYETIREICDKYELLLIIDEVVCGLGRTGKWFGYQHFNVQPDIVTMAKGVASGYAPISCTVTTEKVFQDFVNDPADTDAYFRDISTFGGCTSGPAAALANIEIIERENLLENCTKMGDRLLEGLKGLMAKHPIIGDVRGKGLFAGIEIVKDRATKEPIAEAVANAMVGAAKQAGVLIGKTSRSFREFNNTLTLCPALIATEADIDEIVAGIDKAFTTVEQKFGL
catalysis ([5]; enzyme alone): Catalysis was not observed

B2: MA3299: coenzyme M synthase (ComF) of Methanosarcina acetivorans, SEQ ID NO: 1 (protein)
chain: MNGALDNTEKPRTIQEIQVKIDAGEAVVLTAEEIGAKVRAGGEIRLEDIDVVTTATRGIMSGTYAVFSFKVSEPDSFVKASKVLLNGVPAIVGPCPNERLGVLDLIVLGTAHSETDSRYGGGHLFRDMVEGKSITVDVTTSVGDFFSVETRLSEMPFARLYATRHAFKNYRAFVNPGKESIKTIFHALPFEGEFRELTFCGCGELNPIQNDPKLETIGIGTRVLINGAEGFVTGQGTRSAPDNPNLTGFADLHDMTPEYMGGFVTSAGPEIVNTWAVPIPVLSREMLENILQLDSQIPLKLVDLAGRLPLCEITYGDVWDNTDLSVKYEPEKCIDCKICCVAEACPMGAVSKGENGAVHNPELCFNCGLCISRCKGEAFSAKLGTVSCAVGGCFRDIKVTLRQSDRARAVKAAEELKAQVLSGKFRLKEPVEKISWRE
modifications: Methanosarcina acetivorans
reduction of enzymatic activity ([5]; lysate removed from the anaerobic chamber for centrifugation): ~60%
